In paper PMC9728921, “Characterization of a KDM5 small molecule inhibitor with antiviral activity against hepatitis B virus” (PLOS ONE, 2022):

What was measured:
KDM6B = KDM6B (Homo sapiens, UniProt O15054); assay: KDM6B enzymatic assay (AlphaLISA); format: biochemical
Method: (§1) The following assay protocol was used for all histone demethylases tested except KDM1A, KDM5A, B, and D, which are described below. Compounds were serially diluted into a 384-well Alpha plate as a DMSO solution and mixed with 5 μL reaction buffer (buffer A) containing 50 mM HEPES (pH 7.0), 0.1% BSA, and 0.003% Tween-20. The enzyme of interest was pre-incubated with 15 μM of Fe^2+ for 10 min (except 30 min for KDM2B) in reaction buffer A. 5 μL of the enzyme mixture was added to each of the compound-containing wells and incubated for 10 min. The reaction was started by addition of a 5 μL mixture containing 300 nM peptide substrate, 75 μM L-ascorbic acid, and 30 μM α-ketoglutarate in buffer A. This final 15 μL of reaction mixture was incubated for 20 min for KDM5B and 1 hour for the other KDM enzymes. The reaction was quenched with 10 μL of diluted AlphaLISA Acceptor beads (1:400) in Epigenetics Buffer and incubated for 60 min. The Donor beads were diluted 1:400 into Epigenetics Buffer in the dark and 10 μL of this was added to each well and incubated for another 60 min in the dark. The assay plates were read on an Enspire plate reader (PerkinElmer) using a standard AlphaLISA program.
(§2) Data was analyzed using GraphPad Prism 6.0 (La Jolla, CA). […] IC50 values were calculated as an average of at least two independent experiments.

KDM7B = KDM7B (Homo sapiens, UniProt Q9UPP1); assay: KDM7B enzymatic assay (AlphaLISA); format: biochemical; settings: enzyme concentration 2.5 nM
Method: as §1, §2

HBV (genotype C, GTC) = test system: HBV (genotype C, GTC); design: method as in PMID 31226346; settings: humanized mouse model of HBV infection; cited from earlier work
KDM5B = biological target: T1, KDM5B (Homo sapiens, UniProt Q9UGL1); assay: KDM5B enzymatic assay (CisBio HTRF); format: biochemical
T1 construct: purchased Reaction Biology Corp (assay run there as a contract service)
T1 sequence (Q9UGL1 whole entry): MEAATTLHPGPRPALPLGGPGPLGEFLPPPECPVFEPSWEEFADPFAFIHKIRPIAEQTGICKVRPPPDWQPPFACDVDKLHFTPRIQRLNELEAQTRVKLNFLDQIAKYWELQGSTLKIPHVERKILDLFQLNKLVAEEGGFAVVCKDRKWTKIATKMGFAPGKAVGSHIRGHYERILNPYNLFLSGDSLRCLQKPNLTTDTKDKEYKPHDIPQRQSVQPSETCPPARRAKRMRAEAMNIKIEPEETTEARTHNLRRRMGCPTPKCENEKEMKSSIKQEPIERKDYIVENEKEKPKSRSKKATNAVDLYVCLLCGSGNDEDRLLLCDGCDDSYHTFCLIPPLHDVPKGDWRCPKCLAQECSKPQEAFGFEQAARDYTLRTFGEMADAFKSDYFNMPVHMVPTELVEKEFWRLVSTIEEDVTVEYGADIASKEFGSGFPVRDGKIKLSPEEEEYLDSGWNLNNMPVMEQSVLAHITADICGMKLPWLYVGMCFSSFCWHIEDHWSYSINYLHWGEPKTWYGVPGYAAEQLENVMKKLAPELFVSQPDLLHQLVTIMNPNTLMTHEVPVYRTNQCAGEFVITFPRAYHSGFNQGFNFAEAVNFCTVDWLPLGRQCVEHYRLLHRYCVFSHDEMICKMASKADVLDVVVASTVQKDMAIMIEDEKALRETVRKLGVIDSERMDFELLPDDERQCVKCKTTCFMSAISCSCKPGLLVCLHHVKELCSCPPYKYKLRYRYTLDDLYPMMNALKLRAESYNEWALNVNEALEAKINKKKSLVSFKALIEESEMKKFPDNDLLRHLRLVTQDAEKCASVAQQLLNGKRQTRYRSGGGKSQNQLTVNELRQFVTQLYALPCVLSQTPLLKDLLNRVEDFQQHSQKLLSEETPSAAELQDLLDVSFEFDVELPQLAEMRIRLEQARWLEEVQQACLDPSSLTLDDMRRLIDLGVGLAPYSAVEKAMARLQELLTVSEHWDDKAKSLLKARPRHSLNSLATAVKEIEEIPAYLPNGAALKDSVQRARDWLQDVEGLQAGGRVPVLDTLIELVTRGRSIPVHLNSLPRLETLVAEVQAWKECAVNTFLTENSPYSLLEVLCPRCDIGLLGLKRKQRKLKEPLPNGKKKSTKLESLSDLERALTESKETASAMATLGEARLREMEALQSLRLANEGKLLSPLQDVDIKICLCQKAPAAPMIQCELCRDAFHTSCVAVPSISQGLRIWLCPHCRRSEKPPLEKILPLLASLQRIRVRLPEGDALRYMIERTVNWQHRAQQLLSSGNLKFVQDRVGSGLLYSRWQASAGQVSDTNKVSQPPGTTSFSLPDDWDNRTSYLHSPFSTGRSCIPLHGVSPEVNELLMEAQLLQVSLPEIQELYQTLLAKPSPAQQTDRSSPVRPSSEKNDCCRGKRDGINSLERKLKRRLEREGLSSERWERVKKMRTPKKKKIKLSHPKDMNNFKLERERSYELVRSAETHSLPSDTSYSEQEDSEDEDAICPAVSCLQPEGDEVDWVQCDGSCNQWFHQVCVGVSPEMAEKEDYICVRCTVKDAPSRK
Method: (§3) KDM5A and 5B were tested using CisBio HTRF assay platform by Reaction Biology Corp (Malvern, PA). All concentrations are final unless noted otherwise. Inhibitors were pre-incubated with 2.5 nM KDM5A or 1.2 nM KDM5B in a 5 μL reaction mixture containing 50 mM HEPES (pH 7.5), 50 mM NaCl, 0.01% Tween 20, 0.01% BSA for 15 min temperature. The reaction was initiated by addition of 5 μL of 50 nM Biotin-H3K4me3 and incubated with gentle shaking for 45 min at RT. The reaction was quenched with 10 mM EDTA and 200 mM potassium fluoride. Upon addition of Eu-Antibody and Streptavidine-XL665, the mixture was incubated for 2 hours in the dark. The fluorescence resonance energy transfer was measured using an excitation wavelength of 320 nm and emission wavelength of 665 nm on an Envision plate reader (Perkin Elmer).
as §2

KDM5A = biological target: T2, KDM5A (Homo sapiens, UniProt P29375); assay: KDM5A enzymatic assay (CisBio HTRF); format: biochemical; settings: enzyme concentration 2.5 nM; IC50 lower than enzyme concentration, likely underestimates potency
T2 construct: purchased Reaction Biology Corp (assay run there as a contract service)
Method: as §3, §2

KDM4B = biological target: T3, KDM4B (Homo sapiens, UniProt O94953); assay: KDM4B enzymatic assay (AlphaLISA); format: biochemical; settings: enzyme concentration 1 nM
T3 sequence (O94953 1-1096): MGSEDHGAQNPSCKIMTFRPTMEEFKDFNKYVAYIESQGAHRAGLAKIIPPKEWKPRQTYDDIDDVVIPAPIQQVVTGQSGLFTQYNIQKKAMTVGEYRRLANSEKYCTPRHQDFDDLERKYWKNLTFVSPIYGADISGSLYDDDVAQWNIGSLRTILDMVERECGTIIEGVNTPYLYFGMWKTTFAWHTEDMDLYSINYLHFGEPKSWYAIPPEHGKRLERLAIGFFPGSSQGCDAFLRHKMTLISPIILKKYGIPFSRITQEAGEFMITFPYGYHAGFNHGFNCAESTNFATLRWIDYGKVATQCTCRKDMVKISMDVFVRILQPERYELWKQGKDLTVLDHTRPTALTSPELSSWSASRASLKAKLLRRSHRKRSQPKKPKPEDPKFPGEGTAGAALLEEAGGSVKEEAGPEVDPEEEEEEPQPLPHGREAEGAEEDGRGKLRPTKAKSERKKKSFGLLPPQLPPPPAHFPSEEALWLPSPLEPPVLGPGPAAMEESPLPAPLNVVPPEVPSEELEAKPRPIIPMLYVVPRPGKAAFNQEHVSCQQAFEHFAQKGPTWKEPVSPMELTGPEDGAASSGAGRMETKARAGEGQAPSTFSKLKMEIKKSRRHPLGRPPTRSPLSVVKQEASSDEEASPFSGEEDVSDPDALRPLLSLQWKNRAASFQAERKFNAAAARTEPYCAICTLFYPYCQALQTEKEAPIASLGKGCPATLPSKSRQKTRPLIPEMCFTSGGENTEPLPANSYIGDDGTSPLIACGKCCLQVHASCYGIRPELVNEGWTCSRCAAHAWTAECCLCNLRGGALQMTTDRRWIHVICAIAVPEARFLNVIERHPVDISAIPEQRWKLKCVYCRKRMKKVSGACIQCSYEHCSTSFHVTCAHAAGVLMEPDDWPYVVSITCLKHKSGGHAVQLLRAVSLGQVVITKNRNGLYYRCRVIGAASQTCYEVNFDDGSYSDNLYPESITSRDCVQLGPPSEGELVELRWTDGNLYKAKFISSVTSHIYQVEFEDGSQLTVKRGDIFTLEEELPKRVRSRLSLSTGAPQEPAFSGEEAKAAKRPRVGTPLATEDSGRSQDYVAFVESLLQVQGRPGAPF
Method: as §1, §2

KDM2B = biological target: T4, KDM2B (Homo sapiens, UniProt Q8NHM5); assay: KDM2B enzymatic assay (AlphaLISA); format: biochemical; settings: enzyme concentration 2 nM
T4 sequence (Q8NHM5 1-1336): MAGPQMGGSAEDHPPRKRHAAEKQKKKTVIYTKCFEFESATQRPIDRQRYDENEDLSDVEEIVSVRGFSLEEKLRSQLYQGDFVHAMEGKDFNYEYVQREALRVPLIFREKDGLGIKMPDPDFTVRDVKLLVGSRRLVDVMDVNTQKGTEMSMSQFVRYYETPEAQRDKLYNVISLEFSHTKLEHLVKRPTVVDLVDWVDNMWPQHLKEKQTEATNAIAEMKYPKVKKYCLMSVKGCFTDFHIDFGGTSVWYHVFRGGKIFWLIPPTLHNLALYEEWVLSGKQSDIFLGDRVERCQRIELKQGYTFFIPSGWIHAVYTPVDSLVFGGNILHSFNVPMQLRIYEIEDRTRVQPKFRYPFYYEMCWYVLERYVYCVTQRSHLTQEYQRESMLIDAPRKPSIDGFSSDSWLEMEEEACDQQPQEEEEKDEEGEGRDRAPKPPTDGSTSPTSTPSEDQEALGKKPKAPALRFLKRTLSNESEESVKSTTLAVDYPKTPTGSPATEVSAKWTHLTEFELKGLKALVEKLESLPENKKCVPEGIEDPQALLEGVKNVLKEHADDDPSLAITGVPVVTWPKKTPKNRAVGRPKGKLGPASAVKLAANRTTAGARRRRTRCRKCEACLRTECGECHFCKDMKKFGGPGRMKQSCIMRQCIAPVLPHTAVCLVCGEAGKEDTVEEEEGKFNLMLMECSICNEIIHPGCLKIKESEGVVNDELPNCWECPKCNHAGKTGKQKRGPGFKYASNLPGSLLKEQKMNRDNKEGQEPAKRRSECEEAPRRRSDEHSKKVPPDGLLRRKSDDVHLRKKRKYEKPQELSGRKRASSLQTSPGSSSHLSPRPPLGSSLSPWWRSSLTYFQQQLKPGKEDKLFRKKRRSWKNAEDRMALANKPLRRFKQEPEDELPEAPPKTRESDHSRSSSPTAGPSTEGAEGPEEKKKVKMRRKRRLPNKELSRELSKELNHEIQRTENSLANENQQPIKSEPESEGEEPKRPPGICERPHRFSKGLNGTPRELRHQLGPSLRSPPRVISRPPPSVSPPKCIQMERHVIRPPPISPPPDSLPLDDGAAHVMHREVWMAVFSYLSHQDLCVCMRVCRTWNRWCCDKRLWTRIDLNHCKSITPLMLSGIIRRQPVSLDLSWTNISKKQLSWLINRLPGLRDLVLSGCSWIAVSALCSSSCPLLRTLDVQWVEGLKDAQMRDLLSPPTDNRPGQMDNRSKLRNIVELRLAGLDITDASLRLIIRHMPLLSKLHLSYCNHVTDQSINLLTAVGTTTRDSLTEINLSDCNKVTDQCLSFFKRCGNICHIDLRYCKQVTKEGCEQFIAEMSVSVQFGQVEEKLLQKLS
Method: as §1, §2

KDM6A = KDM6A (Homo sapiens, UniProt O15550); assay: KDM6A enzymatic assay (AlphaLISA); format: biochemical; settings: enzyme concentration 2 nM
Method: as §1, §2

Cytotoxicity CC50, MT-4 = format: cell-based; settings: human, MT-4 cells (T-lymphoblastoid cell line)
Text: (§4) a Values represent the geometric mean and multiplicative standard deviation of 3 – 5 primary human hepatocyte (PHH) donors or 5 – 10 independent experiments.
(§5) b MT-4: human T-lymphoblastoid cell line; PBMC: peripheral blood mononuclear cell; Gal-HepG2: galactose adapted human hepatoblastoma cell line; Huh-7: human hepatoma cell line; Gal-PC3: galactose adapted human prostate carcinoma cell line; MRC-5: Medical Research Council 5 embryonal lung fibroblast; NRVM: neonatal rat ventricular cardiomyocytes

Cytotoxicity CC50, PBMC = format: cell-based; settings: human, PBMC (peripheral blood mononuclear cells)
Text: as §4, §5

[1] = Cytotoxicity CC50, Gal-HepG2; format: cell-based; settings: human, Gal-HepG2 cells (galactose adapted hepatoblastoma cell line)
Text: as §4, §5

Cytotoxicity CC50, Huh-7 = format: cell-based; settings: human, Huh-7 cells (hepatoma cell line)
Text: as §4, §5

Cytotoxicity CC50, PHH = format: cell-based; settings: human, primary human hepatocytes (PHH)
Text: as §4, §5

[2] = Cytotoxicity CC50, Gal-PC3; format: cell-based; settings: human
Text: as §4, §5

Cytotoxicity CC50, MRC-5 = format: cell-based; settings: human, MRC-5 cells (embryonal lung fibroblasts)
Text: as §4, §5

Cytotoxicity CC50, NRVM = format: cell-based; settings: rat, NRVM (neonatal rat ventricular cardiomyocytes)
Text: as §4, §5

NSD1 = biological target: T5, NSD1 (Homo sapiens, UniProt Q96L73); assay: Histone methyltransferase enzymatic assay, NSD1; format: biochemical; settings: enzyme conc. 50 nM
T5 construct: 1538-2696; purchased RBC (read as Reaction Biology Corporation, named)
T5 sequence (Q96L73 1538-2696): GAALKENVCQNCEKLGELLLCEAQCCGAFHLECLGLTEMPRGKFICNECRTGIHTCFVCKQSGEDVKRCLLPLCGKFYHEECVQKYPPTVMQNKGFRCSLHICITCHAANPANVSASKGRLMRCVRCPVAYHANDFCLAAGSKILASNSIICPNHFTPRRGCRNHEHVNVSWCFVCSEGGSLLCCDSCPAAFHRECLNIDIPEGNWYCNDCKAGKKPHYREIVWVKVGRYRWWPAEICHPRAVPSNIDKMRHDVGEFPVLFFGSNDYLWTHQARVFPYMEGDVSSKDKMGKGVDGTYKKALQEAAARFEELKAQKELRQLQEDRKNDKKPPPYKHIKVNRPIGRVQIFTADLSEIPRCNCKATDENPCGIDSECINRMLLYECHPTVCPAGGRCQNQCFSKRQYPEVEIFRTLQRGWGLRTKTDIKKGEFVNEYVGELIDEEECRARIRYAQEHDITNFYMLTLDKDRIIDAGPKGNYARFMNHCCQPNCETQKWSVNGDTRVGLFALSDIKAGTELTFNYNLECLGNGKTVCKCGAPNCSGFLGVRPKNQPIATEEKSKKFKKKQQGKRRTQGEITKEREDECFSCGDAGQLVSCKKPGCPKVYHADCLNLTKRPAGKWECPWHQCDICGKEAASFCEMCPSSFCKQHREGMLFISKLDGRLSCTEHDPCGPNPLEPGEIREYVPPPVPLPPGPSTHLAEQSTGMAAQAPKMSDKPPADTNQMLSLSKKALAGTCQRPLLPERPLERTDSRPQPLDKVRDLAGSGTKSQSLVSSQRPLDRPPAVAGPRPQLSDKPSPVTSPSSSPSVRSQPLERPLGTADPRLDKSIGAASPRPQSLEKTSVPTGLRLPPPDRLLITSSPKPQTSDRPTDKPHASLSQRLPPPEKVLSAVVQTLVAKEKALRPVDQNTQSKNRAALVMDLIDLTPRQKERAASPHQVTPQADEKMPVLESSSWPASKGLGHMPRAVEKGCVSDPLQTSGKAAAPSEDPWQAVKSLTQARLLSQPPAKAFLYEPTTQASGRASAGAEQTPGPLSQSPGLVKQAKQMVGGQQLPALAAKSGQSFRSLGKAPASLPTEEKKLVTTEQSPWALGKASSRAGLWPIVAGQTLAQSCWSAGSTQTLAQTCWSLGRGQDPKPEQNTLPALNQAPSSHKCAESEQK
Method: (§6) Histone methyltransferase assays were performed in 96-well half-area optiplates (PerkinElmer) at room temperature. All concentrations are final unless noted otherwise. Compounds were serially diluted in DMSO and the final DMSO concentration was 1%. A 24 μL reaction mixture contained compound, enzyme, 200 nM of nucleosome or histone substrate, 400 nM ^3H-SAM (83.1 Ci/mmol), 50 mM Tris-HCl (pH 8.0), 50 mM NaCl, 5 mM MgCl2, 1 mM DTT, and 0.01% Tween-20. The plate was sealed, mixed on a Titramax plate shaker at 1200 rpm for 30 sec, and incubated at room temperature for 60 min. The reaction was quenched by addition of 24 μL mixture containing 5 mg/mL PVT-PEI beads and 300 μM unlabeled SAM in water. The plate was sealed, mixed as previously noted, incubated overnight, and read on a TopCount plate reader (PerkinElmer).
as §2

NSD3 = biological target: T6, NSD3 (Homo sapiens, UniProt Q9BZ95); assay: Histone methyltransferase enzymatic assay, NSD3; format: biochemical; settings: enzyme conc. 100 nM
T6 construct: 1021-1322; purchased RBC (read as Reaction Biology Corporation, named)
T6 sequence (Q9BZ95 1021-1322): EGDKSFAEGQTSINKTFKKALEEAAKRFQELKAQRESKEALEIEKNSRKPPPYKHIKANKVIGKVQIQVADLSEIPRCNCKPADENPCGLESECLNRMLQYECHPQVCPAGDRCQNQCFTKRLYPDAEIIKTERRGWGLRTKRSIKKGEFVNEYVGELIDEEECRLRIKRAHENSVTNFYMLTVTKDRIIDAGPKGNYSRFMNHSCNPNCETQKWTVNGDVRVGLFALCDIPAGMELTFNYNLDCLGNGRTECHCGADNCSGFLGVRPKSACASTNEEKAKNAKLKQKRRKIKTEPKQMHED
Method: as §6, §2

SET7/9 = biological target: T7, SET7/9 (Homo sapiens, UniProt Q8WTS6); assay: Histone methyltransferase enzymatic assay, SET7/9; format: biochemical; settings: enzyme conc. 100 nM
T7 construct: 2-366; purchased RBC (read as Reaction Biology Corporation, named)
T7 sequence (Q8WTS6 2-366): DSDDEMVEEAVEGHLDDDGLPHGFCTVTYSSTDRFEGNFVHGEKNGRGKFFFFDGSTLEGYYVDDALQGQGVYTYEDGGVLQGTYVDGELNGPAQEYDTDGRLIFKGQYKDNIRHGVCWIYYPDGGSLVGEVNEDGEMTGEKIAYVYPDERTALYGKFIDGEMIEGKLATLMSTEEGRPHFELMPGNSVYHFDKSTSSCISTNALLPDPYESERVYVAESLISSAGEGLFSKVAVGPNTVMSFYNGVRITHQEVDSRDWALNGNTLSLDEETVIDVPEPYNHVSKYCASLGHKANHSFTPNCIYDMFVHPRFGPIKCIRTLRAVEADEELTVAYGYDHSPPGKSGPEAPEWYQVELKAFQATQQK
Method: as §6, §2

GLP = biological target: T8, GLP (Homo sapiens, UniProt Q9H9B1); assay: Histone methyltransferase enzymatic assay, GLP; format: biochemical
T8 construct: 894-1298; purchased RBC (read as Reaction Biology Corporation, named)
Method: as §6, §2

SETDB1 = biological target: T9, SETDB1 (Homo sapiens, UniProt Q15047); assay: Histone methyltransferase enzymatic assay, SETDB1; format: biochemical; settings: enzyme conc. 100 nM
T9 construct: 510-1290
Method: as §6, §2

KDM6B, sequence (O15054 whole entry): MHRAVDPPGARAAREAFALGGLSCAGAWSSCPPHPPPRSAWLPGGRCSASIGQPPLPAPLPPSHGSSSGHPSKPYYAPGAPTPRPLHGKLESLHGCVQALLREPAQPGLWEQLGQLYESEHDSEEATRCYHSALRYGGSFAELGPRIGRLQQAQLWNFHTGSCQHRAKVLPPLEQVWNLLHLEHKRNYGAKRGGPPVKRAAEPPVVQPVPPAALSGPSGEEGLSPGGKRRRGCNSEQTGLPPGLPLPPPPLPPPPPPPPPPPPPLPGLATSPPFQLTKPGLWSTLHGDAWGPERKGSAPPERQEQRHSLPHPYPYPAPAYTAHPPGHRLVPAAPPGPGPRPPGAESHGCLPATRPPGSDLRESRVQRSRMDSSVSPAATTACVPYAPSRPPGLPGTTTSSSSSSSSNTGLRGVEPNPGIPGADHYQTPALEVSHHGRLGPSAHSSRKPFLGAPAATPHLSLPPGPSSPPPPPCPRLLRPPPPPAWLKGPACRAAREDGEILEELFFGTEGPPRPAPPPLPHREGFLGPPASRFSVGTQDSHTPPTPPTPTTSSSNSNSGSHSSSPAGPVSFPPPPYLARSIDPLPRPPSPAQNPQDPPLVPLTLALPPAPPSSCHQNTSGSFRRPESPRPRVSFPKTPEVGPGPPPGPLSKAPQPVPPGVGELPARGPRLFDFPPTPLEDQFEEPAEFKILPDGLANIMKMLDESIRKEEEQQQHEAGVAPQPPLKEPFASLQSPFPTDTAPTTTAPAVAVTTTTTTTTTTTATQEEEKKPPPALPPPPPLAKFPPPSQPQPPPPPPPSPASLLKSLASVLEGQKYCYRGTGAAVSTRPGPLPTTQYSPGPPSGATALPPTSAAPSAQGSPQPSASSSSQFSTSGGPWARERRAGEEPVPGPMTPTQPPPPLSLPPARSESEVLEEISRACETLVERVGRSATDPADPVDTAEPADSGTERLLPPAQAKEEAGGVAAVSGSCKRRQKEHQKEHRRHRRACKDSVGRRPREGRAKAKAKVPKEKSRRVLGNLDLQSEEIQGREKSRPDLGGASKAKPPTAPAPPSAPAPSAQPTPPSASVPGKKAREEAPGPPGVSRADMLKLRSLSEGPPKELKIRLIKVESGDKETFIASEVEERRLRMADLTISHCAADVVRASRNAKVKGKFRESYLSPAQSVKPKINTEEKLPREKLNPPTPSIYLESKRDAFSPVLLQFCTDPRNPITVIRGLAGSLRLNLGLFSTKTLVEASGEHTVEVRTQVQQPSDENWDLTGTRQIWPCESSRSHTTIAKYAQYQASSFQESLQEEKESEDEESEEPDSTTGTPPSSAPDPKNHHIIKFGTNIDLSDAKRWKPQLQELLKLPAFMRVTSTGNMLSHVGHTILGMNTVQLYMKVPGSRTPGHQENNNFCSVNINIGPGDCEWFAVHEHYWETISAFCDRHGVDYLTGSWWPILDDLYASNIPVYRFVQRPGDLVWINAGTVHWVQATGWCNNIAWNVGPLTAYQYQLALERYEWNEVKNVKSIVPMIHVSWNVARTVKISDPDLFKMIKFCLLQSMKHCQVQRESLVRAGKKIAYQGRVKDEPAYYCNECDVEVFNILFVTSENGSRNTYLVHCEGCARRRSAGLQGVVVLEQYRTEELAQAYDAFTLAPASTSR

Oc1cccc2cccnc12 [8-OH Quinoline, 8-hydroxyquinoline, reference compound]
IC50 (KDM6B): 6.4 µM | IC50 (KDM7B): 13 µM

CC1=C(/C=C/C(C)=C/C=C/C(C)=C\C(=O)O)C(C)(C)CCC1 [Accutane]
in vivo antiviral activity (HBV (genotype C, GTC)): lack of in vivo antiviral activity

CCN(CCN(C)C)C(=O)CNCc1cc(C(=O)O)c(Br)cn1 [GS-444]
fold reduced KDM5B inhibitory activity over GS-080 (KDM5B; IC50 for KDM5B compared with GS-080): 7000 fold | IC50 (KDM5B; enzyme concentration 1.2 nM, IC50 lower than enzyme concentration, likely underestimates potency): 2.76 µM

O=C(O)c1ccnc(C(=O)O)c1 [PDCA, 2,4-Pyridinedicarboxylic acid, reference compound]
IC50 (KDM5A): 0.41 µM | IC50 (KDM4B): 0.86 µM | IC50 (KDM2B): 19 µM | IC50 (KDM6A): 99 µM

COc1ccc(C[C@H](N)C(=O)N[C@H]2[C@@H](O)[C@H](n3cnc4c(N(C)C)ncnc43)O[C@@H]2CO)cc1 [Puromycin, reference compound]
CC50 (Cytotoxicity CC50, MT-4): 0.1 µM | CC50 (Cytotoxicity CC50, PBMC): 0.61 ± 1.3 µM | CC50 [1]: 1.3 ± 1.4 µM | CC50 (Cytotoxicity CC50, Huh-7): 0.67 ± 1.5 µM | CC50 (Cytotoxicity CC50, PHH): 1.6 ± 1.8 µM | CC50 [2]: 0.44 µM | CC50 (Cytotoxicity CC50, MRC-5): 0.35 µM | CC50 (Cytotoxicity CC50, NRVM): 0.57 ± 1.4 µM

Nc1ncnc2c1ncn2[C@@H]1O[C@H](CSCC[C@H](N)C(=O)O)[C@@H](O)[C@H]1O [SAH, S-(5′-Adenosyl)-L-homocysteine, reference compound]
IC50 (NSD1): 93 µM | IC50 (NSD3): 15 µM | IC50 (SET7/9): 70 µM | IC50 (GLP): 2.2 µM | IC50 (SETDB1): 17 µM
